How the values were obtained:
[1] = molecular target: T1, KAT6A (Homo sapiens, UniProt Q92794); test: Kat6a activity assay (TR-FRET, acetylation of biotinylated histone H4 peptide); format: biochemical; settings: recombinant human His-tagged Kat6a (amino acids 194-810), 60 mins at 22° C., read-out: KAT6A-DPF/HAT domain IC50 [mol/l] (arithmetic mean)
T1 construct: Recombinant human His-tagged Kat6a protein (amino acids 194-810); His; made in house; host or cells: Baculovirus-infected Sf9 insect cells
T1 sequence (Q92794 194-810): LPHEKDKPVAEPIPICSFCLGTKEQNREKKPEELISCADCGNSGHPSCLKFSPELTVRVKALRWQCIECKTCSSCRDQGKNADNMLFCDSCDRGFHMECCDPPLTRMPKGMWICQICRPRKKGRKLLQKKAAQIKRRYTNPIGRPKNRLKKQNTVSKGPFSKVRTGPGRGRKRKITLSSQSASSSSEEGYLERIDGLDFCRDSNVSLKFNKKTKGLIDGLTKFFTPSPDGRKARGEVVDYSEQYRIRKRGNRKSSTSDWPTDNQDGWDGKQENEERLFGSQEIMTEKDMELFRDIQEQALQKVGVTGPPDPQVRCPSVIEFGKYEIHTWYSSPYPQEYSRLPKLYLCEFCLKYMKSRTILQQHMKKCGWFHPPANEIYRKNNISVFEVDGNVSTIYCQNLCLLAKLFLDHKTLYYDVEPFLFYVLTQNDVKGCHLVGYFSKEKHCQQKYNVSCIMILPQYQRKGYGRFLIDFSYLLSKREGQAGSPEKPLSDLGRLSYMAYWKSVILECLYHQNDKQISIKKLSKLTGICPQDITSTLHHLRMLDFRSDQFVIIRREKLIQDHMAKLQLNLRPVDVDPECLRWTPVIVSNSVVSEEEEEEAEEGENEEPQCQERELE
Excerpt: Kat6a inhibitory activities of the compounds described in the present invention were quantified using a Fluorescence Resonance Energy Transfer (TR-FRET) assay which measures acetylation of a synthetic, biotinylated Histone-H4-derived peptide by the enzyme.
Recombinant human His-tagged Kat6a protein (amino acids 194-810), was purified in-house from Baculovirus-infected insect cells (Sf9). Histone H4 peptide (amino acids 1-24, […]-VLRD-K(Btn)-amide), which was used as substrate, was synthesized by Biosyntan GmbH, Berlin, Germany. Acetyl Coenzyme A was purchased from Sigma-Aldrich (#A-2056).
Kat6a was incubated for 60 mins at 22° C. in the presence of different concentrations of test substances (0 μM, and within the range 0.01-20 μM) in assay buffer [25 mM Tris/HCl pH 8, 1 mM EGTA, 2.5 mM Glutathion, 0.02% Chicken Albumin, 0.05% Pluronic F127, 25 mM NaCl, 220 nM H4 peptide and 600 nM Acetyl Coenzyme A].
The reaction was stopped by addition of Detection Solution (25 mM HEPES pH 7.5, 0.1% BSA, 22 nM SAXL665 (Cisbio #610SAXLE), 100 μM Anacardic Acid (Enzo #ALX-270-381), 1 nM Anti-Histone H4 (ACETYL K8) Antibody (ABCAM #AB15823) and 0.5 nM Anti-Rabbit IgG Eu (Perkin Elmer #AD0083).
The fluorescence emission at 620 nm and 665 nm after excitation at 330-350 nm was measured in a TR-FRET measuring instrument, for instance a Rubystar or a Pherastar (both from BMG Lab Technologies, Offenburg, Germany) or a Viewlux (Perkin-Elmer). The ratio of the emission at 665 nm and at […] was used as indicator of the amount of acetylated peptide.
The resulting data (ratio) were normalized, taking 0% inhibition as the mean value of control measurements where all reagents were included. In this case 50 nl DMSO were used instead of compounds. […] IC50 values were determined by regression analysis based on a 4 parameter equation (minimum, maximum, ICM, Hill; Y=Max+(Min−Max)/(1+(X/ICso) Hill) using the Screener Software (Genedata).

[2] = system: ESR1 transcription in MVLN cells; test: Repression of ESR1 transcription, MVLN luciferase reporter assay; format: cell-based; settings: Homo sapiens, luciferase signal after 24 h, read-out: MVLN reporter assay, IC50[M] (arithmetic mean)
Excerpt: KAT6A controls transcription of the ESR1 gene in breast cancer cells. Compound treatment that interferes with this mechanism was quantified using MVLN cells. These cells constitutively express the ER and are stably transfected with the luciferase (LUC) reporter gene and the corresponding hormone responsive element derived from the 5′-flanking region of the Xenopus Vitellogenin A2 gene (Pons et al., 1990, Demirpense et al., 1993, Joyeux et al., 1993). The repressive effect on ERα transcription activity of a test chemical is directly related to the luciferase measured in the lysate of treated MVLN cells.
Each sample was prepared as duplicate and rim wells were excluded. For luciferase signal determination 100 μl of a 1:1 mixture of Steadylite plus (Perkin Elmer; 6016759) and assay medium was added after 24 h for 15 minutes and measured in Victor X3 (Perkin Elmer). To exclude any effects caused by cell loss during the treatment, cell density was determined using Alamar Blue (Invitrogen; DAL1100). Prior to the luciferase measurement 10 μl Alamar Blue were added to each well and the plates were incubated for 2 h in the incubator. Then fluorescence was measured with Victor X3 (Perkin Elmer) at 530 nm/590 nm.

Row | SMILES | IC50 [1] [µM] | IC50 [2] [M]
1 | CC(C)c1ccc(OCc2ccccc2)c(S(=O)(=O)NC(=O)c2cc3c(F)cc(C4CC4)cc3o2)c1 [Example 35, N-(2-Benzyloxy-5-isopropyl-phenyl)sulfonyl-6-cyclopropyl-4-fluoro-benzofuran-2-carboxamide] | 0.00599 | 2.19e-07
2 | CC(C)c1ccc(OCC2CC2)c(S(=O)(=O)NC(=O)c2cc3c(F)cc(C4CC4)cc3o2)c1 [Example 36, 6-Cyclopropyl-N-[2-(cyclopropylmethoxy)-5-isopropyl-phenyl]sulfonyl-4-fluoro-benzofuran-2-carboxamide] | 0.00301 | 1.41e-07
3 | CCCOc1ccccc1S(=O)(=O)NC(=O)c1cc2c(F)cc(C3CC3)cc2o1 [Example 40, 6-Cyclopropyl-4-fluoro-N-(2-propoxyphenyl)sulfonyl-benzofuran-2-carboxamide] | 0.0248 | 6.63e-07
4 | O=C(NS(=O)(=O)c1ccccc1)c1cc2c(OC(F)F)cc(C3CC3)cc2o1 [Example 46, N-(benzenesulfonyl)-6-cyclopropyl-4-(difluoromethoxy)benzofuran-2-carboxamide] | 0.148 | 1.77e-05
5 | O=C(NS(=O)(=O)c1ccccc1-c1ccccc1)c1cc2c(OC(F)F)cc(C3CC3)cc2o1 [Example 48, 6-Cyclopropyl-4-(difluoromethoxy)-N-(2-phenylphenyl)sulfonyl-benzofuran-2-carboxamide] | 0.0267 | 5.54e-06
6 | CCOc1ccccc1S(=O)(=O)NC(=O)c1cc2c(OC(F)F)cc(C3CC3)cc2o1 [Example 49, 6-Cyclopropyl-4-(difluoromethoxy)-N-(2-ethoxyphenyl)sulfonyl-benzofuran-2-carboxamide] | 0.0286 | 6.97e-06
7 | CCOc1ccccc1S(=O)(=O)NC(=O)c1cc2c(-n3ccnc3)cc(C3CC3)cc2o1 [Example 58, 6-Cyclopropyl-N-(2-ethoxyphenyl)sulfonyl-4-imidazol-1-yl-benzofuran-2-carboxamide] | 0.0395 | > 2e-05
8 | CC(C)(C)c1ccc(OC2CC2)c(S(=O)(=O)NC(=O)c2cc3c(F)cc(C4CC4)cc3o2)c1 [Example 59, N-((5-(tert-butyl)-2-cyclopropoxyphenyl)sulfonyl)-6-cyclopropyl-4-fluorobenzofuran-2-carboxamide] | 0.00358 | 1.04e-07
9 | CC(C)(C)c1ccc(OCc2ccccc2)c(S(=O)(=O)NC(=O)c2cc3c(F)cc(C4CC4)cc3o2)c1 [Example 60, N-[(2-(Benzyloxy)-5-(tert-butyl)phenyl)sulfonyl]-6-cyclopropyl-4-fluorobenzofuran-2-carboxamide] | 0.00267 | 8.24e-08
10 | CC(C)(C)c1ccc(OC2CCC2)c(S(=O)(=O)NC(=O)c2cc3c(F)cc(C4CC4)cc3o2)c1 [Example 63, N-((5-(tert-Butyl)-2-cyclobutoxyphenyl)sulfonyl)-6-cyclopropyl-4-fluorobenzofuran-2-carboxamide] | 0.00246 | 2.24e-07
11 | CC(C)Oc1ccc(C(C)(C)C)cc1S(=O)(=O)NC(=O)c1cc2c(F)cc(C3CC3)cc2o1 [Example 64, N-((5-(tert-Butyl)-2-isopropoxyphenyl)sulfonyl)-6-cyclopropyl-4-fluorobenzofuran-2-carboxamide] | 0.00433 | 1.76e-07
12 | CC(C)c1ccc(OC2CCC2)c(S(=O)(=O)NC(=O)c2cc3c(F)cc(C4CC4)cc3o2)c1 [Example 65, N-[(2-Cyclobutoxy-5-isopropylphenyl)sulfonyl]-6-cyclopropyl-4-fluorobenzofuran-2-carboxamide] | 0.00209 | 1.49e-07
13 | CC(C)c1ccc(OCC2CC2(F)F)c(S(=O)(=O)NC(=O)c2cc3c(F)cc(C4CC4)cc3o2)c1 (stereo not shown) [Example 67, 6-Cyclopropyl-N-{(2-[(2,2-difluorocyclopropyl)methoxy)-5-isopropylphenyl]sulfonyl}-4-fluorobenzofuran-2-carboxamide] | 0.0045 | 8.29e-08

Results, then the molecule that gave them:

Row | IC50 [1] [µM] | IC50 [2] [M] | SMILES
14 | 0.106 | 1.7e-06 | CCOc1c(F)cccc1S(=O)(=O)NC(=O)c1cc2c(F)cc(C3CC3)cc2o1 [Example 28, 6-Cyclopropyl-N-(2-ethoxy-3-fluoro-phenyl)sulfonyl-4-fluoro-benzofuran-2-carboxamide]
15 | 0.0373 | 2.84e-07 | CCOc1cc(F)ccc1S(=O)(=O)NC(=O)c1cc2c(F)cc(C3CC3)cc2o1 [Example 30, 6-Cyclopropyl-N-(2-ethoxy-4-fluoro-phenyl)sulfonyl-4-fluoro-benzofuran-2-carboxamide]
16 | 0.00899 | 2.31e-07 | CCOc1ccc(C(F)(F)F)cc1S(=O)(=O)NC(=O)c1cc2c(F)cc(C3CC3)cc2o1 [Example 31, 6-Cyclopropyl-N-[2-ethoxy-5-(trifluoromethyl)phenyl]sulfonyl-4-fluoro-benzofuran-2-carboxamide]
17 | 0.0556 | 4.23e-07 | CCOc1ccc(F)cc1S(=O)(=O)NC(=O)c1cc2c(F)cc(C3CC3)cc2o1 [Example 32, 6-Cyclopropyl-N-(2-ethoxy-5-fluoro-phenyl)sulfonyl-4-fluoro-benzofuran-2-carboxamide]
18 | 0.00632 | 1.74e-06 | CCOc1ccc(Oc2ccccc2)cc1S(=O)(=O)NC(=O)c1cc2c(F)cc(C3CC3)cc2o1 [Example 33, 6-Cyclopropyl-N-(2-ethoxy-5-phenoxy-phenyl)sulfonyl-4-fluoro-benzofuran-2-carboxamide]
19 | 0.0208 | 1.42e-06 | CCOc1ccc(OC(F)(F)F)cc1S(=O)(=O)NC(=O)c1cc2c(F)cc(C3CC3)cc2o1 [Example 34, 6-Cyclopropyl-N-[2-ethoxy-5-(trifluoromethoxy)phenyl]sulfonyl-4-fluoro-benzofuran-2-carboxamide]
20 | 0.00499 | 2.98e-07 | CC(C)c1ccc(OCC(F)(F)F)c(S(=O)(=O)NC(=O)c2cc3c(F)cc(C4CC4)cc3o2)c1 [Example 41, 6-Cyclopropyl-4-fluoro-N-[5-isopropyl-2-(2,2,2-trifluoroethoxy)phenyl]sulfonyl-benzofuran-2-carboxamide]
21 | 0.00292 | 1.11e-07 | CC(C)(C)c1ccc(OCC2CC2)c(S(=O)(=O)NC(=O)c2cc3c(F)cc(C4CC4)cc3o2)c1 [Example 61, N-((5-(tert-butyl)-2-(cyclopropylmethoxy)phenyl)sulfonyl)-6-cyclopropyl-4-fluorobenzofuran-2-carboxamide]
22 | 0.00416 | 2.4e-07 | CC(C)(C)c1ccc(OCC(F)(F)F)c(S(=O)(=O)NC(=O)c2cc3c(F)cc(C4CC4)cc3o2)c1 [Example 62, N-((5-(tert-butyl)-2-(2,2,2-trifluoroethoxy)phenyl)sulfonyl)-6-cyclopropyl-4-fluorobenzofuran-2-carboxamide]
23 | 0.00479 | 1.23e-07 | CCOc1ccc(C(C)C)cc1S(=O)(=O)NC(=O)c1cc2c(F)cc(C3CC3)cc2o1 [Example 72, 6-Cyclopropyl-N-(2-ethoxy-5-isopropyl-phenyl)sulfonyl-4-fluoro-benzofuran-2-carboxamide]

Source: US20240287048A1, “SUBSTITUTED ACYL SULFONAMIDES FOR TREATING CANCER” (The Broad Institute, Inc., priority 2020, published 2024)
